Data published in PubChem BioAssay (NCI).
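Exposure lasted 48 hours, with cells grown in 96-well plates and compounds tested at five concentrations. GI50 marks 50% less growth. TGI: total growth inhibition.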

What was measured:
Assay in all cases: NCI anticancer screen, dose series, 48 h
CCRF-CEM leukemia = system: CCRF-CEM leukemia
U251 CNS = system: U251 CNS
SW-620 colon = system: SW-620 colon
OVCAR-8 ovarian = system: OVCAR-8 ovarian
NCI-H460 lung = system: NCI-H460 lung
M14 melanoma = system: M14 melanoma
MOLT-4 leukemia = system: MOLT-4 leukemia
NCI-H226 lung = system: NCI-H226 lung
OVCAR-5 ovarian = system: OVCAR-5 ovarian
K-562 leukemia = system: K-562 leukemia
HCT-116 colon = system: HCT-116 colon
NCI/ADR-RES ovarian = system: NCI/ADR-RES ovarian
A549 NSCLC = system: A549 NSCLC
T-47D breast = system: T-47D breast
LOX IMVI melanoma = system: LOX IMVI melanoma
HL-60(TB) leukemia = system: HL-60(TB) leukemia
MALME-3M melanoma = system: MALME-3M melanoma
SK-MEL-5 melanoma = system: SK-MEL-5 melanoma
MDA-MB-231 breast = system: MDA-MB-231 breast
HS 578T breast = system: HS 578T breast
HOP-62 NSCLC = system: HOP-62 NSCLC
ACHN renal = system: ACHN renal
SNB-19 CNS = system: SNB-19 CNS
RPMI-8226 leukemia = system: RPMI-8226 leukemia
MDA-MB-435 = system: MDA-MB-435
MCF7 breast = system: MCF7 breast
KM12 colon = system: KM12 colon
786-0 renal = system: 786-0 renal
EKVX NSCLC = system: EKVX NSCLC
SN12C renal = system: SN12C renal
UO-31 renal = system: UO-31 renal
CAKI-1 renal = system: CAKI-1 renal
SK-OV-3 ovarian = system: SK-OV-3 ovarian
HCC-2998 colon = system: HCC-2998 colon
HCT-15 colon = system: HCT-15 colon
IGROV1 ovarian = system: IGROV1 ovarian
UACC-257 melanoma = system: UACC-257 melanoma
SF-295 CNS = system: SF-295 CNS
RXF 393 renal = system: RXF 393 renal
UACC-62 melanoma = system: UACC-62 melanoma
NCI-H522 lung = system: NCI-H522 lung
OVCAR-4 ovarian = system: OVCAR-4 ovarian
HT29 colon = system: HT29 colon
TK-10 renal = system: TK-10 renal
SR leukemia = system: SR leukemia
NCI-H23 lung = system: NCI-H23 lung
SNB-75 CNS = system: SNB-75 CNS
OVCAR-3 ovarian = system: OVCAR-3 ovarian
HOP-92 NSCLC = system: HOP-92 NSCLC
PC-3 prostate = system: PC-3 prostate
SF-268 CNS = system: SF-268 CNS
SK-MEL-28 melanoma = system: SK-MEL-28 melanoma
SK-MEL-2 melanoma = system: SK-MEL-2 melanoma
COLO 205 colon = system: COLO 205 colon
SF-539 CNS = system: SF-539 CNS
DU-145 prostate = system: DU-145 prostate

Question: Which results are given for `C=C1CCC2C(/C=C(\C)CCC1O)OC(=O)C2C` (configuration not stated)?
Answer: GI50 (CCRF-CEM leukemia): 31.3 µM; TGI (CCRF-CEM leukemia): > 100 µM; GI50 (U251 CNS): > 100 µM; TGI (U251 CNS): > 100 µM; GI50 (SW-620 colon): > 100 µM; TGI (SW-620 colon): > 100 µM; GI50 (OVCAR-8 ovarian): > 100 µM; TGI (OVCAR-8 ovarian): > 100 µM; GI50 (NCI-H460 lung): > 100 µM; TGI (NCI-H460 lung): > 100 µM; GI50 (M14 melanoma): > 100 µM; TGI (M14 melanoma): > 100 µM; GI50 (MOLT-4 leukemia): 19.6 µM; TGI (MOLT-4 leukemia): 58.2 µM; GI50 (NCI-H226 lung): > 100 µM; TGI (NCI-H226 lung): > 100 µM; GI50 (OVCAR-5 ovarian): > 100 µM; TGI (OVCAR-5 ovarian): > 100 µM; GI50 (K-562 leukemia): > 100 µM; TGI (K-562 leukemia): > 100 µM; GI50 (HCT-116 colon): > 100 µM; TGI (HCT-116 colon): > 100 µM; GI50 (NCI/ADR-RES ovarian): > 100 µM; TGI (NCI/ADR-RES ovarian): > 100 µM; GI50 (A549 NSCLC): > 100 µM; TGI (A549 NSCLC): > 100 µM; GI50 (T-47D breast): > 100 µM; TGI (T-47D breast): > 100 µM; GI50 (LOX IMVI melanoma): > 100 µM; TGI (LOX IMVI melanoma): > 100 µM; GI50 (HL-60(TB) leukemia): 51.5 µM; TGI (HL-60(TB) leukemia): > 100 µM; GI50 (MALME-3M melanoma): > 100 µM; TGI (MALME-3M melanoma): > 100 µM; GI50 (SK-MEL-5 melanoma): > 100 µM; TGI (SK-MEL-5 melanoma): > 100 µM; GI50 (MDA-MB-231 breast): > 100 µM; TGI (MDA-MB-231 breast): > 100 µM; GI50 (HS 578T breast): > 100 µM; TGI (HS 578T breast): > 100 µM; GI50 (HOP-62 NSCLC): > 100 µM; TGI (HOP-62 NSCLC): > 100 µM; GI50 (ACHN renal): > 100 µM; TGI (ACHN renal): > 100 µM; GI50 (SNB-19 CNS): > 100 µM; TGI (SNB-19 CNS): > 100 µM; GI50 (RPMI-8226 leukemia): 90.4 µM; TGI (RPMI-8226 leukemia): > 100 µM; GI50 (MDA-MB-435): > 100 µM; TGI (MDA-MB-435): > 100 µM; GI50 (MCF7 breast): 82.2 µM; TGI (MCF7 breast): > 100 µM; GI50 (KM12 colon): > 100 µM; TGI (KM12 colon): > 100 µM; GI50 (786-0 renal): > 100 µM; TGI (786-0 renal): > 100 µM; GI50 (EKVX NSCLC): > 100 µM; TGI (EKVX NSCLC): > 100 µM; GI50 (SN12C renal): > 100 µM; TGI (SN12C renal): > 100 µM; GI50 (UO-31 renal): > 100 µM; TGI (UO-31 renal): > 100 µM; GI50 (CAKI-1 renal): > 100 µM; TGI (CAKI-1 renal): > 100 µM; GI50 (SK-OV-3 ovarian): > 100 µM; TGI (SK-OV-3 ovarian): > 100 µM; GI50 (HCC-2998 colon): > 100 µM; TGI (HCC-2998 colon): > 100 µM; GI50 (HCT-15 colon): > 100 µM; TGI (HCT-15 colon): > 100 µM; GI50 (IGROV1 ovarian): > 100 µM; TGI (IGROV1 ovarian): > 100 µM; GI50 (UACC-257 melanoma): > 100 µM; TGI (UACC-257 melanoma): > 100 µM; GI50 (SF-295 CNS): > 100 µM; TGI (SF-295 CNS): > 100 µM; GI50 (RXF 393 renal): 23.2 µM; TGI (RXF 393 renal): > 100 µM; GI50 (UACC-62 melanoma): > 100 µM; TGI (UACC-62 melanoma): > 100 µM; GI50 (NCI-H522 lung): > 100 µM; TGI (NCI-H522 lung): > 100 µM; GI50 (OVCAR-4 ovarian): > 100 µM; TGI (OVCAR-4 ovarian): > 100 µM; GI50 (HT29 colon): > 100 µM; TGI (HT29 colon): > 100 µM; GI50 (TK-10 renal): > 100 µM; TGI (TK-10 renal): > 100 µM; GI50 (SR leukemia): > 100 µM; TGI (SR leukemia): > 100 µM; GI50 (NCI-H23 lung): > 100 µM; TGI (NCI-H23 lung): > 100 µM; GI50 (SNB-75 CNS): > 100 µM; TGI (SNB-75 CNS): > 100 µM; GI50 (OVCAR-3 ovarian): > 100 µM; TGI (OVCAR-3 ovarian): > 100 µM; GI50 (HOP-92 NSCLC): > 100 µM; TGI (HOP-92 NSCLC): > 100 µM; GI50 (PC-3 prostate): > 100 µM; TGI (PC-3 prostate): > 100 µM; GI50 (SF-268 CNS): > 100 µM; TGI (SF-268 CNS): > 100 µM; GI50 (SK-MEL-28 melanoma): > 100 µM; TGI (SK-MEL-28 melanoma): > 100 µM; GI50 (SK-MEL-2 melanoma): > 100 µM; TGI (SK-MEL-2 melanoma): > 100 µM; GI50 (COLO 205 colon): > 100 µM; TGI (COLO 205 colon): > 100 µM; GI50 (SF-539 CNS): > 100 µM; TGI (SF-539 CNS): > 100 µM; GI50 (DU-145 prostate): > 100 µM; TGI (DU-145 prostate): > 100 µM
